# Assay results as given in ChEMBL document CHEMBL3352410 (J Med Chem, 2014).
# Tests used:
# [1] = molecular target: T1, Kappa-type opioid receptor (Homo sapiens, UniProt P41145); assay: Antagonist activity at human kappa opioid receptor expressed in CHO cells assessed as inhibition of U69,593-stimulated [35S]GTPgammaS binding; format: functional, cell-based
# [2] = molecular target: T2, Delta-type opioid receptor (Homo sapiens, UniProt P41143); assay: Antagonist activity at human delta opioid receptor expressed in CHO cells assessed as inhibition of DPDPE-stimulated [35S]GTPgammaS binding; format: functional, cell-based
# T2 sequence (P41143 whole entry): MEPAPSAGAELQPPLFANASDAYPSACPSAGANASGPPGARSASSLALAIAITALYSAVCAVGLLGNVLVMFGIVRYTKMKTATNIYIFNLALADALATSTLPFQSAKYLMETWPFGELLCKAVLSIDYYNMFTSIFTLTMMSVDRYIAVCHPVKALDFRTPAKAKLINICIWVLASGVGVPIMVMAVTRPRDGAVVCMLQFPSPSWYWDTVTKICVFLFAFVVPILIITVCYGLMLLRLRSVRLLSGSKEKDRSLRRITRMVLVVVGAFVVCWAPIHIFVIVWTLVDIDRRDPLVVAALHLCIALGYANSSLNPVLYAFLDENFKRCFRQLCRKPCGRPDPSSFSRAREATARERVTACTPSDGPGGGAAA
# [3] = molecular target: T2, Delta-type opioid receptor; assay: Binding affinity to human delta opioid receptor expressed in CHO cells; format: cell-based
# [4] = molecular target: T1, Kappa-type opioid receptor; assay: Binding affinity to human kappa opioid receptor expressed in CHO cells; format: cell-based
# Mu-type opioid receptor [5] = molecular target: T3, Mu-type opioid receptor (Homo sapiens, UniProt P35372); assay: Antagonist activity at human mu opioid receptor expressed in CHO cells assessed as inhibition of DAMGO-stimulated [35S]GTPgammaS binding; format: functional, cell-based
# T3 sequence (P35372 whole entry): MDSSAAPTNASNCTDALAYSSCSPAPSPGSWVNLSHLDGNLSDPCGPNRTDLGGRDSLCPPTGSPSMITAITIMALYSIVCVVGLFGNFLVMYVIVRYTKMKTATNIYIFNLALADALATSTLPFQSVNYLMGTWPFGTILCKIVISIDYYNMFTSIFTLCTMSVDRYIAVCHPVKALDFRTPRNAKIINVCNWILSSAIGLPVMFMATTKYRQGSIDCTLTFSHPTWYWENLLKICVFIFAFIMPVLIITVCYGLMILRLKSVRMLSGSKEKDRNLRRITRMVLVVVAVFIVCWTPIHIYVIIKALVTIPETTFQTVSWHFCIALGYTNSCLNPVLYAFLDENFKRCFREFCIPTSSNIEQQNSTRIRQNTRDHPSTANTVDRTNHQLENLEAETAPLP
# Mu-type opioid receptor [6] = molecular target: T3, Mu-type opioid receptor; assay: Binding affinity to human mu opioid receptor expressed in CHO cells; format: cell-based
# T1 sequence (P41145 whole entry): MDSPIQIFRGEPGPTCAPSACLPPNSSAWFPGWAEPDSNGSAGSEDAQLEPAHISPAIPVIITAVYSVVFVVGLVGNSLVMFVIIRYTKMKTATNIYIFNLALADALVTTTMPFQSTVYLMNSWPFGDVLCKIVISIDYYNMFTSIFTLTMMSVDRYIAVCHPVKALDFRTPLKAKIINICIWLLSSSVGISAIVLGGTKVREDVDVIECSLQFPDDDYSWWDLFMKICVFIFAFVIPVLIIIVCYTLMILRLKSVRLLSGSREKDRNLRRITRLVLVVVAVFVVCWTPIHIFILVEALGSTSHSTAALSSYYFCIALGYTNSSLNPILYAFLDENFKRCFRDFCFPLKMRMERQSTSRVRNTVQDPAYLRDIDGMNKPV
structure (smiles),measurement,setting,value
C[C@H]1CN(CC[C@H](O)C2CCCCC2)CC[C@@]1(C)c1ccccc1,Kb,[1],40.6 nM
same,Kb,[2],47.1 nM
same,Ki,[3],169 nM
same,Ki,[4],749 nM
same,Kb,Mu-type opioid receptor [5],1.6 nM
same,Ki,Mu-type opioid receptor [6],7.7 nM
